Results on one molecule are retold here after patent US12673028B2, “Therapeutic potential of cellulose-cyclodextrin-curcumin nanocrystals in the treatment of peripheral neuropathies” (UNIVERSITÉ DE LIMOGES, priority 2019, dated 2026).

Data set [1] can be described thus: Bioavailability of curcumin in plasma. The class given is in vivo. The conditions noted are these: rat, 50 mg/kg.
The conditions of data set [2]: rats; cited from earlier work.
The subject of the next data set is wild type Schwann cells. Description: In vitro H2O2-induced oxidative stress in Schwann cells. In kind it is cell-based, rat. The settings on record: H2O2 0.1 mM. How it is done:
Schwann cells (SCs) were isolated from sciatic nerves of wild type (WT) male rats as well as 8-week-old CMT1A rats. SCs were cultured in SC culture medium (described in Caillaud et al., 2018): DMEM D-valine+2 mM glutamine (Gibco)+10% fetal calf serum (Gibco)+1% N2 supplement (Gibco)+20 μg/mL bovine pituitary extract+5 μM forskolin (Gibco)+100 U/mL penicillin/streptomycin (Gibco)+250 μg/mL fungizone (Gibco). SCs were identified using immunofluorescent labeling for S-100 protein.
To induce oxidative stress, SCs were subjected to H2O2 (0.1 mM) treatment for 8 hours. Total ROS and mitochondrial superoxide ions were assessed using the CellROX-Green reagent (Life Technologies GmbH) and the mitochondrial superoxide indicator MitoSOX Red (Life Technologies GmbH), respectively, according to the manufacturer's recommendations.

Take `COc1cc(/C=C/C(=O)CC(=O)/C=C/c2ccc(O)c(OC)c2)ccc1O` [Curcumin, curcumin]: in data set [1], the concentration at 0 h worked out at 0 ng/mL, the concentration at 1 h is 24.9 ng/mL, the concentration at 2 h was found to be 4.3 ng/mL and the concentration at 8 h came out at 0 ng/mL. Besides, the concentration at 12 h in data set [1] worked out at 0 ng/mL. In data set [2], the Oral bioavailability result was “approximately 1%”. Moreover, the “Mitochondrial membrane potential Δψm (Rho123)” value in the data set on wild type Schwann cells (0.001 μM and 0.01 μM) is given as “did not reduce the H2O2-induced decrease in Δψm”. In the data set with wild type Schwann cells (1 μM, 8 h pretreatment), the “H2O2-induced mitochondrial ROS (MitoSOX)” value was “restored values close to those of the control group” and the “H2O2-induced total ROS (CellROX)” value is on record as “reduced H2O2-induced total ROS”. Further, in the data set on wild type Schwann cells (0.001, 0.01 and 10 μM, 8 h pretreatment), the “H2O2-induced total ROS (CellROX)” value was “had no antioxidant effect”.
